Laboratory results as given in ChEMBL document CHEMBL1201862, “PubChem BioAssay data set” (2004).
Activity calls are given as the source filed them. Cut-off read from the data, not from the text of the source: actives have a measured IC50 and inactives only a lower limit.

Target: Envelope glycoprotein gp160 (Human immunodeficiency virus 1, UniProt Q6QLK5)
Test: cell-free HIV fusion peptide-binding blockers – biochemical, uHTS, fluorescence dequenching, […] (AID 1986)

Chain of Envelope glycoprotein gp160 (Q6QLK5 whole entry, the tested form may be a part): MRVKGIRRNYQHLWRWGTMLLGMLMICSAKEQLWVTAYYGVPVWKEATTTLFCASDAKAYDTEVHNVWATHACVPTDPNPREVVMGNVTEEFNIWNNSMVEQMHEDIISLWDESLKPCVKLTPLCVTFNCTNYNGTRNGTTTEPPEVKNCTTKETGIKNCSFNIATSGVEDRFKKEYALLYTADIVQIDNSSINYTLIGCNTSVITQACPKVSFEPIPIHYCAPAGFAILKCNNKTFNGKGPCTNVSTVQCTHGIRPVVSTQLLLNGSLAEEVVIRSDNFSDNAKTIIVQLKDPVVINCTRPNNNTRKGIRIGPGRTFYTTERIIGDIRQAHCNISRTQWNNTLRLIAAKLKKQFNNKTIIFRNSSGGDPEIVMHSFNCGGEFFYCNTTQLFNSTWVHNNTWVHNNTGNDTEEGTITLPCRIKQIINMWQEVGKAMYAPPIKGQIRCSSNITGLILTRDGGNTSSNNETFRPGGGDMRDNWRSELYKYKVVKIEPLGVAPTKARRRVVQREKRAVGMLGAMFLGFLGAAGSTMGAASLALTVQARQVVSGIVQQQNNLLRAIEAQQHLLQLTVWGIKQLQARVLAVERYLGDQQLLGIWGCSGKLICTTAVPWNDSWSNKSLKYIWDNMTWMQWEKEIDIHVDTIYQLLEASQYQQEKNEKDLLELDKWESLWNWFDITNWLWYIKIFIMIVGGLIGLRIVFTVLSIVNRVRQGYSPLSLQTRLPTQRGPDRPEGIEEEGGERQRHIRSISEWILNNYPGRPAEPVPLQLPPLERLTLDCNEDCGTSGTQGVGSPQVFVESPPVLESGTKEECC

| Structure (SMILES) | IC50 |
| --- | --- |
| COc1ccc(/C=N/NC(=O)c2[nH]c3ccc(Br)cc3c2-c2ccccc2)c(C(=O)O)c1OC | 19.4 µM (active) |
| CCCOc1ccc(C2C(C(=O)c3cc4ccccc4o3)=C(O)C(=O)N2c2cc(C)on2)cc1 (configuration not stated) | 16.5 µM (active) |
